Test results as given in ChEMBL document CHEMBL3039007, “Structure-based identification of OATP1B1/3 inhibitors” (Mol Pharmacol, 2013).

How the values were obtained:
[1] = target: T1, Solute carrier organic anion transporter family member 1B3 (Homo sapiens, UniProt Q9NPD5); settings: chinese hamster, cho, 10 µM
T1 sequence (Q9NPD5 whole entry): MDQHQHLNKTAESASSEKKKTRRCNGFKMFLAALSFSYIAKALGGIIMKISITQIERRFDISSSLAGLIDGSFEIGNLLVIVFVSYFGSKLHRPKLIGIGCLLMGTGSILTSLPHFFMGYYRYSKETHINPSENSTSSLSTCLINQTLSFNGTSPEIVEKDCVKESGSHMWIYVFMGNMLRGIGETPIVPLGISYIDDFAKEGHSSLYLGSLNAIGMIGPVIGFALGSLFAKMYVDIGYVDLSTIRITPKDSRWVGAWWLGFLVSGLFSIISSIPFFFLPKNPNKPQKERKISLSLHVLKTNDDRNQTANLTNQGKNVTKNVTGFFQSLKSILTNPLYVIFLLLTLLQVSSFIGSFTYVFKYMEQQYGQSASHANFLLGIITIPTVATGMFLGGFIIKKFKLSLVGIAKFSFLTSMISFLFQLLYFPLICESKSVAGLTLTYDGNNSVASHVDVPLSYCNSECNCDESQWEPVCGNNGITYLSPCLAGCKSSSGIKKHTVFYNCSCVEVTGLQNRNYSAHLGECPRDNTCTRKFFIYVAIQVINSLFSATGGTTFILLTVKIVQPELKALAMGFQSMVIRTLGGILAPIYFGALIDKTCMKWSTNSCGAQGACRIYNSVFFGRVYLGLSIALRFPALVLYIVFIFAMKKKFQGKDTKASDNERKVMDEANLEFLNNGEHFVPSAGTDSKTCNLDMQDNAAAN

[2] = target: T2, Solute carrier organic anion transporter family member 1B1 (Homo sapiens, UniProt Q9Y6L6); settings: chinese hamster, cho, 10 µM
T2 sequence (Q9Y6L6 whole entry): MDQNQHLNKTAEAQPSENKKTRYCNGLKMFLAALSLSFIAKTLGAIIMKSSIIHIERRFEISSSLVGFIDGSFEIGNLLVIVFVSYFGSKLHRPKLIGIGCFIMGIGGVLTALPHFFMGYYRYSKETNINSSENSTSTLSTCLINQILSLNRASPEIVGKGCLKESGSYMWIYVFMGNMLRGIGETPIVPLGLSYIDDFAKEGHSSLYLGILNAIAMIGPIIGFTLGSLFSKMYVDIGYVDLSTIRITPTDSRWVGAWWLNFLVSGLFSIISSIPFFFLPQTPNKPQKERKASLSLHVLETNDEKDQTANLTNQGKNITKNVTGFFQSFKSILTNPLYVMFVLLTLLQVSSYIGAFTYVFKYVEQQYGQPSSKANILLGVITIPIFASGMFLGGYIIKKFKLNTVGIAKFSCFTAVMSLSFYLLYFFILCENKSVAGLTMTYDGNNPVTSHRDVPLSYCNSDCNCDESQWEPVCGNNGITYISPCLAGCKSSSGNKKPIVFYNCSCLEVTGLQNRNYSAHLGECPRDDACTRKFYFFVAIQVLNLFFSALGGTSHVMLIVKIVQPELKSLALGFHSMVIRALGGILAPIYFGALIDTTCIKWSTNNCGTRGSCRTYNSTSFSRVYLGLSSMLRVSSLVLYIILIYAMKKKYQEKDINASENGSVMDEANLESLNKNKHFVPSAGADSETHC

SMILES: CC(C)(O)[C@@H]1[C@H]2OC(=O)[C@@H]1[C@]1(O)C[C@H]3O[C@]34C(=O)O[C@H]2[C@]14C [PICROTIN]
- residual activity [1]: 89.14%
- residual activity [2]: 88.44%

SMILES: COC(=O)[C@]1(C)CCC[C@]2(C)c3ccc(C(C)C)cc3C(=O)CC12 (stereo not given in full) [7-OXOCALLITRISIC ACID, METHYL ESTER]
- residual activity [1]: 105.6%
- residual activity [2]: 127.8%

SMILES: Cl.Clc1cccc(Cl)c1NC1=NCCN1 [CLONIDINE HYDROCHLORIDE]
- residual activity [1]: 99.63%
- residual activity [2]: 73%

SMILES: CC1(C)CC2C1CCC1(C)OC1CCC2(C)O (stereo not given) [2-HYDROXY-5 (6)EPOXY-TETRAHYDROCARYOPHYLLENE]
- residual activity [1]: 86.53%
- residual activity [2]: 70.41%

SMILES: CCC1(c2ccccc2)C(=O)NCNC1=O [PRIMIDONE]
- residual activity [1]: 90.17%
- residual activity [2]: 78.09%

SMILES: CCC(C)C(=O)c1c(O)c(C)c2oc3c(C)c(O)c(C(=O)C(C)CC)c(O)c3c2c1O (stereo not given) [RHODOMYRTOXIN B]
- residual activity [1]: 37.47%
- residual activity [2]: 8.078%

SMILES: CC(=O)Oc1cccc2c1C(=O)c1c(OC(C)=O)cc(C(=O)O)cc1C2=O [DIACEREIN]
- residual activity [1]: 86.69%
- residual activity [2]: 72.58%

SMILES: CN1CCC(=C2c3ccccc3Sc3ccccc32)CC1.O=C(O)/C=C\C(=O)O [PIMETHIXENE MALEATE]
- residual activity [1]: 104.8%
- residual activity [2]: 83.52%

SMILES: COc1c(O)cc(O)cc1O [IRETOL]
- residual activity [1]: 111.8%
- residual activity [2]: 89.16%

SMILES: CC(=O)O[C@@H]1CC(=O)[C@]2(C)[C@H]3CC[C@@]4(C)[C@H](c5ccoc5)OC(=O)[C@H]5O[C@]54[C@]3(C)C(=O)C[C@H]2C1(C)C
- residual activity [1]: 97.89%
- residual activity [2]: 80.54%

SMILES: COC(=O)COc1cc(Cl)c(Cl)cc1Cl [2,4,5-TRICHLOROPHENOXYACETIC ACID, METHYL ESTER]
- residual activity [1]: 116.4%
- residual activity [2]: 98.01%

SMILES: COc1cc2nc(N3CCN(C(=O)c4ccco4)CC3)nc(N)c2cc1OC.Cl [PRAZOSIN HYDROCHLORIDE]
- residual activity [1]: 90.48%
- residual activity [2]: 99.58%

SMILES: Cc1nc(C)c(Cl)c(O)c1Cl [CLOPIDOL]
- residual activity [1]: 91.88%
- residual activity [2]: 154.4%

SMILES: O=C(O)c1cn(C2CC2)c2cc(N3CCNCC3)c(F)cc2c1=O [CIPROFLOXACIN]
- residual activity [1]: 112.4%
- residual activity [2]: 105.3%

SMILES: COc1ccc2cc1Oc1ccc(cc1)C[C@H]1c3cc(c(OC)cc3CCN1C)Oc1c(OC)c(OC)cc3c1[C@H](C2)N(C)CC3 [FANCHININ]
- residual activity [1]: 220.2%
- residual activity [2]: 75.74%

SMILES: CCOC(=O)NNc1nncc2ccccc12.Cl [TODRALAZINE HYDROCHLORIDE]
- residual activity [1]: 106.5%
- residual activity [2]: 100.5%

SMILES: Cl.c1ccc2c(CC3=NCCN3)cccc2c1 [NAPHAZOLINE HYDROCHLORIDE]
- residual activity [1]: 95.85%
- residual activity [2]: 100.7%

SMILES: CC[C@H](/C=C/[C@@H](C)[C@H]1CC[C@H]2[C@@H]3CCC4=CC(=O)CC[C@]4(C)[C@H]3CC[C@]12C)C(C)C
- residual activity [1]: 88.84%
- residual activity [2]: 89.99%

SMILES: Nc1ccc(S(=O)(=O)Nc2ccnn2-c2ccccc2)cc1 [SULFAPHENAZOLE]
- residual activity [1]: 98.59%
- residual activity [2]: 104.5%

SMILES: C=CCC1(C(C)CCC)C(=O)N=C([S-])NC1=O.[Na+] (stereo not given) [THIAMYLAL SODIUM]
- residual activity [1]: 103.8%
- residual activity [2]: 84.73%

SMILES: CC(=O)O[C@H]1CC[C@]2(C)[C@H]3CC=C4[C@@H]5CC(C)(C)CC[C@]5(C)CC[C@@]4(C)[C@]3(C)CC[C@H]2C1(C)C [beta-AMYRIN ACETATE]
- residual activity [1]: 110%
- residual activity [2]: 113%

SMILES: Clc1ccc(CO/N=C(\Cn2ccnc2)c2ccc(Cl)cc2Cl)c(Cl)c1.O=[N+]([O-])O [OXICONAZOLE NITRATE]
- residual activity [1]: 122.3%
- residual activity [2]: 116%

SMILES: COc1ccc(C2COc3cc(O)ccc3C2)c(OC)c1O (racemic) [MUCRONULATOL(+/-)]
- residual activity [1]: 87.73%
- residual activity [2]: 87.17%

SMILES: Cc1cc(NS(=O)(=O)c2ccc(N)cc2)no1 [SULFAMETHOXAZOLE]
- residual activity [1]: 94.47%
- residual activity [2]: 104.3%

SMILES: CCN(CC)C(C)CN1c2ccccc2Sc2ccccc21.Cl (stereo not given) [ETHOPROPAZINE HYDROCHLORIDE]
- residual activity [1]: 85.68%
- residual activity [2]: 60.6%

SMILES: NC(=O)N1c2ccccc2C=Cc2ccccc21 [CARBAMAZEPINE]
- residual activity [1]: 99.43%
- residual activity [2]: 121.6%

SMILES: COc1ccc2c(c1)[nH]c1c(C)nccc12 [HARMINE]
- residual activity [1]: 101.7%
- residual activity [2]: 105.3%

SMILES: CN(C)[C@@H]1C(O)=C(C(N)=O)C(=O)[C@@]2(O)C(O)=C3C(=O)c4c(O)ccc(Cl)c4[C@@H](O)[C@H]3C[C@@H]12.Cl [DEMECLOCYCLINE HYDROCHLORIDE]
- residual activity [1]: 90.61%
- residual activity [2]: 104.7%

SMILES: C/C=C(\C)C(=O)O[C@H]1C[C@@H](OC(C)=O)[C@@]2(C(=O)OC)CO[C@H]3[C@@H](O)[C@@](C)([C@]45O[C@@]4(C)[C@@H]4C[C@H]5O[C@@H]5OC=C[C@@]54O)[C@H]4[C@]1(CO[C@]4(O)C(=O)OC)[C@@H]32 [AZADIRACHTIN A]
- residual activity [1]: 74.42%
- residual activity [2]: 51.12%

SMILES: CCCCc1nc(Cl)c(CO)n1Cc1ccc(-c2ccccc2-c2nn[nH]n2)cc1 [LOSARTAN]
- residual activity [1]: 3.759%
- residual activity [2]: 23.21%

SMILES: COC(=O)C[C@H]1C(C)(C)[C@@H](OC(C)=O)[C@@H]2CC3C4CC(=O)O[C@@H](c5ccoc5)[C@]4(C)CCC3[C@@]1(C)C2=O (stereo not given in full) [DIHYDROFISSINOLIDE]
- residual activity [1]: 77.17%
- residual activity [2]: 71.88%

SMILES: CC(C)(C)NCC(O)c1cc(Cl)c(N)c(Cl)c1.Cl (stereo not given) [CLENBUTEROL HYDROCHLORIDE]
- residual activity [1]: 99.43%
- residual activity [2]: 78.76%

SMILES: Clc1ccc(COC(Cn2ccnc2)c2ccc(Cl)cc2Cl)c(Cl)c1.O=[N+]([O-])O (stereo not given) [MICONAZOLE NITRATE]
- residual activity [1]: 119.9%
- residual activity [2]: 124.1%

SMILES: COc1ccc(C(=O)O[C@H]2CC[C@@]3(C)[C@@H]4CC[C@H]5[C@]6(O)C[C@H](O)[C@@]7(O)[C@@H](CN8C[C@@H](C)CC[C@H]8[C@@]7(C)O)[C@]6(O)C[C@@]53O[C@]24O)cc1OC [VERATRIDINE]
- residual activity [1]: 133.7%
- residual activity [2]: 82.28%

SMILES: CCC1(C2=NCCN2)Cc2ccccc2O1.Cl (stereo not given) [EFAROXAN HYDROCHLORIDE]
- residual activity [1]: 83.03%
- residual activity [2]: 80.2%

SMILES: COc1ccc(/C=C/C(=O)Nc2ccccc2C(=O)O)cc1OC
- residual activity [1]: 71.26%
- residual activity [2]: 55.59%

SMILES: O=C1OC(=O)C2C3CCC(O3)C12 (stereo not given)
- residual activity [1]: 93.17%
- residual activity [2]: 106.4%

SMILES: CCc1cccc2c3c([nH]c12)C(CC)(CC(=O)O)OCC3 (stereo not given) [ETODOLAC]
- residual activity [1]: 103.6%
- residual activity [2]: 68.27%

SMILES: COP(=S)(OC)Oc1ccc(SC)c(C)c1 [FENTHION]
- residual activity [1]: 100.4%
- residual activity [2]: 116.2%

SMILES: CSCC[C@H](NC=O)C(=O)N[C@@H](CC(C)C)C(=O)N[C@@H](Cc1ccccc1)C(=O)O
- residual activity [1]: 120.4%
- residual activity [2]: 76.72%

SMILES: CC(C)(C)NCC(O)COc1cccc2c1CC(O)C(O)C2 (stereo not given) [NADOLOL]
- residual activity [1]: 86.47%
- residual activity [2]: 76.36%

SMILES: CC(=O)Nc1cc([As](=O)(O)O)ccc1O [ACETARSONE]
- residual activity [1]: 85.71%
- residual activity [2]: 58.73%

SMILES: Cc1c(O)c(O)cc2c1CC=C1[C@@]2(C)CC[C@@]2(C)[C@@H]3C[C@](C)(C(=O)O)CC[C@]3(C)CC[C@]12C [DIHYDROCELASTROL]
- residual activity [1]: 40.35%
- residual activity [2]: 70.52%

SMILES: CC1=CCc2c(cc3oc(C)cc(=O)c3c2O)OC1 [PTAEROXYLIN]
- residual activity [1]: 109.4%
- residual activity [2]: 104.1%

SMILES: COC(=O)C[C@H]1C(C)(C)C(=O)[C@@H]2CC3C4=CC(=O)O[C@@H](c5ccoc5)[C@]4(C)CC[C@@H]3[C@@]1(C)C2=O (stereo not given in full) [CARAPIN]
- residual activity [1]: 66.49%
- residual activity [2]: 20.92%
